The source of these data is patent US20190365790A1, “Compounds, Compositions and Methods for Prevention or Treatment of Liver and Lipid-related Conditions” (SIVANARAY INC., priority 2017, published 2019).

The subject of the experiment is HFD-fed, streptozotocin (STZ) injected rats with type 2 diabetes (T2DM). Briefly: Study 3 (BVISIV): plasma biochemical parameters in HFD + STZ type 2 diabetes rats. Format: in vivo. Particulars: for relative effectiveness in lowering serum triglyceride, LDL and ALT levels: 200 mg/kg/day oral, comparison among BVISIV formulations.

On to `O=C[C@H](O)[C@@H](O)[C@@H](O)[C@H](O)C(=O)O` [BVISIV 4, Galacturonic Acid], for which the “lowering of glucose serum levels” value (200 mg/kg/day, end of 6 weeks, vs Group 2) is “most effective”.

`O=C[C@H](O)[C@@H](O)[C@@H](O)[C@H](O)CO` [BVISIV 5, Galactose]: the “relative effectiveness in lowering serum triglyceride, LDL and ALT levels” value is on record as “effective”.

Turning to `O=C[C@@H](O)[C@H](O)[C@H](O)CO` [BVISIV 6, Arabinose], the “relative effectiveness in lowering serum triglyceride, LDL and ALT levels” value is “did not perform as well as the other formulations”.
